Test results taken from patent publication US20240246908A1 (ORION CORPORATION, priority 2021, published 2024).

Tested on: YAP-TEAD
Test: TEAD inhibition, Hippo Pathway TEAD Reporter MCF-7 luciferase assay
Assay type: cell-based
Settings: Homo sapiens, MCF7, 24 h, Hippo Pathway TEAD Reporter MCF-7 cells, luciferase activity after 24 h; read-out: IC50 of the test compounds on YAP-TEAD inhibition (Group)
Experimental: TEAD inhibition was assayed using Hippo Pathway TEAD Reporter—MCF-7 cell line (BPS Bioscience, Catalog #: 60618) which contains firefly luciferase gene under the control of TEAD responsive elements. In the cell line, YAP1 remains in the nucleus inducing constitutive expression of luciferase reporter. Amount of expressed luciferase was detected using ONE-Glo Luciferase Assay System (Promega) and measuring plates with Enspire Multimode Plate Reader (PerkinElmer).
Hippo Pathway TEAD Reporter—MCF-7 cells were plated on white/clear Poly-D-Lysine coated 384 plates (Corning #356660) at the density of 8500 cells/well. Next day test compounds (11 concentrations with 4 replicates) and DMSO control (0.1%) were added to the plate. After 24 h cells were lysed and luciferase activity was measured. The half maximal inhibitory concentration (IC50) of the test compounds on YAP-TEAD inhibition was determined.

Row | Compound | IC50
1 | COc1ccc(COc2cccc(F)c2)cc1NC(=O)[C@H]1NC(=O)C[C@@H]1C (racemic) [Compound 6, rac-(trans)-N-(5-((3-Fluorophenoxy)methyl)-2-methoxyphenyl)-3-methyl-5-oxopyrrolidine-2-carboxamide] | 301 to 2000 nM
2 | COc1ccc(COc2cccc(F)c2)cc1NC(=O)[C@H]1NC(=O)C[C@H]1C (racemic) [Compound 20, rac-(cis)-N-(5-((3-Fluorophenoxy)methyl)-2-methoxyphenyl)-3-methyl-5-oxo-pyrrolidine-2-carboxamide] | 301 to 2000 nM
3 | COc1ccc(Oc2cccc(C(F)(F)F)c2)cc1NC(=O)[C@@H]1CCC(=O)N1C(C)=O (stereo in doubt) [Compound 30, 1-Acetyl-N-(2-methoxy-5-(3-(trifluoromethyl)phenoxy)phenyl)-5-oxo-pyrrolidine-2-carboxamide] | 50 to 300 nM
4 | COc1ccc(Oc2ccc(C(F)(F)F)cc2)cc1NC(=O)[C@H]1CCC(=O)N1 (stereo in doubt) [Compound 45, N-(2-Methoxy-5-(4-(trifluoromethyl)phenoxy)phenyl)-5-oxopyrrolidine-2-carboxamide] | < 50 nM
5 | COc1ccc(Oc2ccc(C(F)(F)F)cc2)cc1NC(=O)[C@@H]1CCC(=O)N1 (stereo in doubt) [Compound 46, N-(2-Methoxy-5-(4-(trifluoromethyl)phenoxy)phenyl)-5-oxopyrrolidine-2-carboxamide] | 301 to 2000 nM
6 | COc1cc(NC(=O)C2CCC(=O)N2C)cc(OC2CCC(F)(F)CC2)c1 (stereo in doubt) [Compound 275, (R)—N-(3-((4,4-Difluorocyclohexyl)oxy)-5-methoxyphenyl)-1-methyl-5-oxo-pyrrolidine-2-carboxamide] | 50 to 300 nM
7 | COc1ccc(Oc2ccc(C(F)(F)F)cc2)cc1NC(=O)C1CCC(=O)N1 (stereo not drawn) [Compound 1, N-(2-Methoxy-5-(4-(trifluoromethyl)phenoxy)phenyl)-5-oxo-pyrrolidine-2-carboxamide] | < 50 nM
8 | COc1ccc(Oc2cccc(F)c2)cc1NC(=O)C1CCC(=O)N1C(C)=O (stereo not drawn) [Compound 2, 1-Acetyl-N-(5-(3-fluorophenoxy)-2-methoxyphenyl)-5-oxopyrrolidine-2-carboxamide] | 301 to 2000 nM
9 | COc1ccc(COc2cccc(F)c2)cc1NC(=O)C1CCC(=O)N1C(C)=O (stereo not drawn) [Compound 3, 1-Acetyl-N-(5-((3-fluorophenoxy)methyl)-2-methoxyphenyl)-5-oxopyrrolidine-2-carboxamide] | 301 to 2000 nM
10 | COc1cc(OC)c(NC(=O)C2CCC(=O)N2)cc1COc1cccc(F)c1 (stereo not drawn) [Compound 4, N-(5-((3-Fluorophenoxy)methyl)-2,4-dimethoxyphenyl)-5-oxopyrrolidine-2-carboxamide] | 301 to 2000 nM
11 | COc1ccc(COc2cccc(F)c2)cc1NC(=O)C1CN(CCF)C1 [Compound 5, 1-(2-Fluoroethyl)-N-(5-((3-fluorophenoxy)methyl)-2-methoxyphenyl)azetidine-3-carboxamide] | 301 to 2000 nM
12 | O=C1CC(C(=O)Nc2cccc(Oc3cccc(C(F)(F)F)c3)c2)N1 (stereo not drawn) [Compound 7, 4-Oxo-N-(3-(3-(trifluoromethyl)phenoxy)phenyl)azetidine-2-carboxamide] | 301 to 2000 nM
13 | COc1ccc(Oc2cccc(C(F)(F)F)c2)cc1NC(=O)C1CC(=O)N1 (stereo not drawn) [Compound 8, N-(2-Methoxy-5-(3-(trifluoromethyl)phenoxy)phenyl)-4-oxoazetidine-2-carboxamide] | 50 to 300 nM
14 | COc1ccc(Oc2cccc(C(F)(F)F)c2)cc1NC(=O)CC1CCC(=O)N1 (stereo not drawn) [Compound 9, N-(2-Methoxy-5-(3-(trifluoromethyl)phenoxy)phenyl)-2-(5-oxopyrrolidin-2-yl)acetamide] | 301 to 2000 nM
15 | COc1ccc(Oc2cccc(C(F)(F)F)c2)cc1NC(=O)C1CCC(=O)N1 (stereo not drawn) [Compound 10, N-(2-Methoxy-5-(3-(trifluoromethyl)phenoxy)phenyl)-5-oxopyrrolidine-2-carboxamide] | 50 to 300 nM
16 | COc1ccc(Oc2cccc(C(F)(F)F)c2)cc1NC(=O)C1CCC(=O)N1C (stereo not drawn) [Compound 11, N-(2-Methoxy-5-(3-(trifluoromethyl)phenoxy)phenyl)-1-methyl-5-oxopyrro-lidine-2-carboxamide] | 50 to 300 nM
17 | COc1ccc(Oc2cccc(C(F)(F)F)c2)cc1NC(=O)C1CCS(=O)(=O)C1 (stereo not drawn) [Compound 12, N-(2-Methoxy-5-(3-(trifluoromethyl)phenoxy)phenyl)tetrahydrothiophene-3-carboxamide 1,1-dioxide] | 301 to 2000 nM
18 | COc1ccc(COc2cccc(F)c2)cc1NC(=O)C1CCS(=O)(=O)N1C (stereo not drawn) [Compound 13, N-(5-((3-Fluorophenoxy)methyl)-2-methoxyphenyl)-2-methylisothiazolidine-3-carboxamide 1,1-dioxide] | 301 to 2000 nM
19 | COc1ccc(Oc2cccc(C(F)(F)F)c2)cc1NC(=O)C1(C)CCC(=O)N1 (stereo not drawn) [Compound 14, N-(2-Methoxy-5-(3-(trifluoromethyl)phenoxy)phenyl)-2-methyl-5-oxopyrrolidi-ne-2-carboxamide] | 301 to 2000 nM
20 | COc1ccc(Oc2cccc(F)c2)cc1NC(=O)C1(C)CCC(=O)N1 (stereo not drawn) [Compound 15, N-(5-(3-Fluorophenoxy)-2-methoxyphenyl)-2-methyl-5-oxopyrrolidine-2-carboxamide] | 301 to 2000 nM
21 | O=C1CCC(C(=O)Nc2cccc(Oc3cccc(C(F)(F)F)c3)c2)N1 (stereo not drawn) [Compound 16, 5-Oxo-N-(3-(3-(trifluoromethyl)phenoxy)phenyl) pyrrolidine-2-carboxamide] | 301 to 2000 nM
22 | O=C1CCC(C(=O)Nc2cc(COc3cccc(F)c3)cc3ccoc23)N1 (stereo not drawn) [Compound 17, N-(5-((3-Fluorophenoxy)methyl)benzofuran-7-yl)-5-oxopyrrolidine-2-carboxamide] | 50 to 300 nM
23 | COc1ccc(Oc2cccc(F)c2)cc1NC(=O)C12CCC(=O)N1CCS2 (stereo not drawn) [Compound 18, N-(5-(3-Fluorophenoxy)-2-methoxyphenyl)-5-oxotetrahydropyrrolo[2,1-b]-thiazole-7a(5H)-carboxamide] | 50 to 300 nM
24 | COc1ccc(Oc2cccc(C(F)(F)F)c2)cc1NC(=O)C12CCC(=O)N1CCS2 (stereo not drawn) [Compound 19, N-(2-Methoxy-5-(3-(trifluoromethyl)phenoxy)phenyl)-5-oxotetrahydropyrrolo[2,1-b]thiazole-7a(5H)-carboxamide] | 50 to 300 nM
25 | COc1ccc(/C=C/C2CCC(F)(F)CC2)cc1NC(=O)C1CCC(=O)N1 (stereo not drawn) [Compound 21, (E)-N-(5-(2-(4,4-Difluorocyclohexyl)vinyl)-2-methoxyphenyl)-5-oxopyrroli-dine-2-carboxamide] | < 50 nM
26 | COc1ccc(/C=C/C2CCC(F)(F)CC2)cc1NC(=O)C1CCC(=O)N1C (stereo not drawn) [Compound 22, (E)-N-(5-(2-(4,4-Difluorocyclohexyl)vinyl)-2-methoxyphenyl)-1-methyl-5-oxo-pyrrolidine-2-carboxamide] | < 50 nM
27 | COc1ccc(/C=C/C2CCC(F)(F)CC2)cc1NC(=O)[C@H]1CCC(=O)N1C [Compound 23] | < 50 nM
28 | COc1ccc(/C=C/C2CCC(F)(F)CC2)cc1NC(=O)[C@@H]1CCC(=O)N1C [Compound 24] | 50 to 300 nM
29 | COc1ccc(Oc2cccc(F)c2)cc1NC(=O)[C@H]1CCC(=O)N1 [Compound 25, (R)—N-(5-(3-Fluorophenoxy)-2-methoxyphenyl)-5-oxopyrrolidine-2-carboxamide] | 50 to 300 nM
30 | COc1ccc(COc2cccc(F)c2)cc1NC(=O)C1(C)CCNC1=O (stereo not drawn) [Compound 26, N-(5-((3-Fluorophenoxy)methyl)-2-methoxyphenyl)-3-methyl-2-oxopyrrolidine-3-carboxamide] | 301 to 2000 nM
